Consider 18 compounds from US20260053834A1, “COVALENT MODIFIERS OF AKT1 AND USES THEREOF” (Terremoto Biosciences, Inc., priority 2023, published 2026).

Some results are limits rather than exact numbers.

Experiment [1] concerns the target T1, AKT1 WT (Homo sapiens, UniProt P31749).
T1 construct: expressed in transfected cells; host or cells: HEK293
Put plainly: Live cell target engagement by NanoBRET competitive probe displacement, AKT1 WT. The note with it: transfected HEK293 cells, 2 h at 37° C., read-out: AKT1 WT IC50: GeoMean IC50. The class given is binding.

The target in experiment [2] is T2, AKT1 E17K (Homo sapiens, UniProt P31749, E17K).
T2 construct: expressed in transfected cells; host or cells: HEK293
T2 sequence (P31749 whole entry E17K): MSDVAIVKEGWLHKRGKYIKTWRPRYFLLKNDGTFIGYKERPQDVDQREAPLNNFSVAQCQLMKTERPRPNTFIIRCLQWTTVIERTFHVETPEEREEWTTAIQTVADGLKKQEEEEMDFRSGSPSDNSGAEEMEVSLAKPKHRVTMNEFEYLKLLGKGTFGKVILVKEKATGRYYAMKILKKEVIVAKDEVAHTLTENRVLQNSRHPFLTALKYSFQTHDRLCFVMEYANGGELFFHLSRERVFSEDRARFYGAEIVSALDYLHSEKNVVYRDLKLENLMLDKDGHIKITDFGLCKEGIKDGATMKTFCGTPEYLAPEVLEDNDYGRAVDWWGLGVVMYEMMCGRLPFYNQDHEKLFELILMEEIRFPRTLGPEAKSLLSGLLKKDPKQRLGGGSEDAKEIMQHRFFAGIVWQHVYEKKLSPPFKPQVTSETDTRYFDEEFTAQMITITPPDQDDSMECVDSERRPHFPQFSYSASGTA
In words: Live cell target engagement by NanoBRET competitive probe displacement, AKT1 E17K. The format is binding. The note with it: transfected HEK293 cells, 2 h at 37° C., read-out: AKT1 E17K IC50: GeoMean IC50.

For experiment [3], the system named is LAPC4 prostate cancer cells, which express the AKT1 E17K allele. In words: Antiproliferative effects in LAPC4 cells (CellTiter Glo, 72 h). The format is cell-based. The note with it: Homo sapiens, LAPC4, 72 h, read-out: LAPC4 proliferation IC50: GeoMean IC50. In short, it runs like this:
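Cells grown in IMDM with 12% FBS, seeded at 1,000 cells/well and treated with compound dilutions in DMSO for 72 h. Intracellular ATP read by luminescence. IC50 from a log(inhibitor) vs. response Hill fit.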

Experiment [4] deals with T3, AKT2 (Homo sapiens, UniProt P31751).
T3 construct: expressed in transfected cells; host or cells: HEK293
T3 sequence (P31751 whole entry): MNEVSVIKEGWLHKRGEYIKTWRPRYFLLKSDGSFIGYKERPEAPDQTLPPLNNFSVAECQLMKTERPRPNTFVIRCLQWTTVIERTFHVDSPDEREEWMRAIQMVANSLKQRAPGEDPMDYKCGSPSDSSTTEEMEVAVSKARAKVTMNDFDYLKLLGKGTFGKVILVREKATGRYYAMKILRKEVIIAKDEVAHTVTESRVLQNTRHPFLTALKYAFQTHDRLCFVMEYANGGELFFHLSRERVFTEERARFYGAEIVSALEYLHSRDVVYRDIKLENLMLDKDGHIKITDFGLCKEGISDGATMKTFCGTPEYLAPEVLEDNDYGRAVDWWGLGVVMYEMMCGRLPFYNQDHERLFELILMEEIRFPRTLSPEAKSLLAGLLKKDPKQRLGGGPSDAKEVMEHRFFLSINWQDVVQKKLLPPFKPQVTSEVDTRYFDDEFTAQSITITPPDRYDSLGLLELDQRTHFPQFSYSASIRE
In words: Live cell target engagement by NanoBRET competitive probe displacement, AKT2. The format is binding. The settings on record: transfected HEK293 cells, 2 h at 37° C., read-out: AKT2 IC50: GeoMean IC50.

T1 sequence (P31749 whole entry): as the sequence (P31749 whole entry E17K) above, with K17E counted along it

As for `Cc1cc(-n2ccc(F)n2)nc2c1nc(-c1cccnc1N)n2-c1ccc2c(c1)CC[C@@H]2NC(=O)c1cc(C=O)c(O)c(F)c1F` [Example 199, N-[(1S)-5-[2-(2-aminopyridin-3-yl)-5-(3-fluoropyrazol-1-yl)-7-methylimidazo[4,5-b]pyridin-3-yl]-2,3-dihydro-1H-inden-1-yl]-2,3-difluoro-5-formyl-4-hydroxybenzamide], the IC50 in experiment [1] is under 10 nM; in experiment [2] it was under 10 nM; in experiment [3], 100 to 2000 nM; in experiment [4], 100 to 2000 nM.
`COc1cc(-n2cccn2)nc2c1nc(-c1cccnc1N)n2-c1ccc2c(c1)CC[C@@H]2NC(=O)c1ccc(O)c(C=O)c1` [Example 200, N-[(1S)-5-[2-(2-aminopyridin-3-yl)-7-methoxy-5-(pyrazol-1-yl)imidazo[4,5-b]pyridin-3-yl]-2,3-dihydro-1H-inden-1-yl]-3-formyl-4-hydroxybenzamide]: the IC50 in experiment [1] fell in the range of 10 to 100 nM; in experiment [2], 10 to 100 nM; in experiment [3] it was 100 to 2000 nM; in experiment [4] it was 100 to 2000 nM.
As for `C#Cc1cc(-n2cccn2)nc2c1nc(-c1cccnc1N)n2-c1ccc2c(c1)CC[C@@H]2NC(=O)c1ccc(O)c(C=O)c1` [Example 201, N-[(1S)-5-[2-(2-aminopyridin-3-yl)-7-ethynyl-5-(pyrazol-1-yl)imidazo[4,5-b]pyridin-3-yl]-2,3-dihydro-1H-inden-1-yl]-3-formyl-4-hydroxybenzamide], the IC50 lay in the range of 100 to 2000 nM in experiment [1], 10 to 100 nM in experiment [2], 100 to 2000 nM in experiment [3] and 100 to 2000 nM in experiment [4].
Take `Cc1cc(-n2cccn2)nc2c1nc(-c1cccnc1N)n2-c1ccc2c(c1)CC[C@@H]2NC(=O)c1cc(C=O)c(O)cc1F` [Example 202, (S)—N-(5-(2-(2-aminopyridin-3-yl)-7-methyl-5-(1H-pyrazol-1-yl)-3H-imidazo[4,5-b]pyridin-3-yl)-2,3-dihydro-1H-inden-1-yl)-2-fluoro-5-formyl-4-hydroxybenzamide]: the IC50 in experiment [1], in experiment [2], in experiment [3] and in experiment [4] was 10 to 100 nM in each case.
In the case of `Cc1nnc(-c2ccc3nc(-c4cccnc4N)n(-c4ccc5c(c4)CC[C@@H]5NC(=O)c4ccc(O)c(C=O)c4)c3n2)s1` [Example 203, N-[(1S)-5-[2-(2-aminopyridin-3-yl)-5-(5-methyl-1,3,4-thiadiazol-2-yl)imidazo[4,5-b]pyridin-3-yl]-2,3-dihydro-1H-inden-1-yl]-3-formyl-4-hydroxybenzamide], the IC50 in experiment [1] lay within 10 to 100 nM; in experiment [2], 10 to 100 nM; in experiment [3], 100 to 2000 nM; in experiment [4], 100 to 2000 nM.
As for `[2H]C(=O)c1cc(C(=O)N[C@H]2CCc3cc(-n4c(-c5cccnc5N)nc5ccc(-n6cccn6)nc54)ccc32)c(F)c(F)c1O` [Example 204, (S)—N-(5-(2-(2-aminopyridin-3-yl)-5-(1H-pyrazol-1-yl)-3H-imidazo[4,5-b]pyridin-3-yl)-2,3-dihydro-1H-inden-1-yl)-2,3-difluoro-5-(formyl-d)-4-hydroxybenzamide], the IC50 in experiment [1] was under 10 nM; in experiment [2], under 10 nM; in experiment [3], 10 to 100 nM; in experiment [4], 10 to 100 nM.
Turning to `Nc1ncccc1-c1nc2ccc(-n3cccn3)nc2n1-c1ccc2c(c1)CC[C@@H]2NC(=O)c1cc(C=O)c(O)cc1-n1cccn1` [Example 205, N-[(1S)-5-[2-(2-aminopyridin-3-yl)-5-(pyrazol-1-yl)imidazo[4,5-b]pyridin-3-yl]-2,3-dihydro-1H-inden-1-yl]-5-formyl-4-hydroxy-2-(pyrazol-1-yl)benzamide], the IC50 in experiment [1] was in the range of 10 to 100 nM; in experiment [2], 10 to 100 nM; in experiment [3], 100 to 2000 nM; in experiment [4] it was 100 to 2000 nM.
For `Nc1ncccc1-c1nc2ccc(-n3ncc4c3COC4)nc2n1-c1ccc2c(c1)CC[C@@H]2NC(=O)c1ccc(O)c(C=O)c1` [Example 206, N-[(1S)-5-[2-(2-aminopyridin-3-yl)-5-{4H,6H-furo[3,4-c]pyrazol-1-yl}imidazo[4,5-b]pyridin-3-yl]-2,3-dihydro-1H-inden-1-yl]-3-formyl-4-hydroxybenzamide], the IC50 in experiment [1] was 10 to 100 nM; in experiment [2] it was under 10 nM; in experiment [3], 10 to 100 nM; in experiment [4], 100 to 2000 nM.
With `Nc1ncccc1-c1nc2ccc(-n3cc4c(n3)COC4)nc2n1-c1ccc2c(c1)CC[C@@H]2NC(=O)c1ccc(O)c(C=O)c1` [Example 207, N-[(1S)-5-[2-(2-aminopyridin-3-yl)-5-{4H,6H-furo[3,4-c]pyrazol-2-yl}imidazo[4,5-b]pyridin-3-yl]-2,3-dihydro-1H-inden-1-yl]-3-formyl-4-hydroxybenzamide], the IC50 in experiment [1] was in the range of 10 to 100 nM; in experiment [2] it was 10 to 100 nM; in experiment [3] it was 100 to 2000 nM; in experiment [4], 100 to 2000 nM.
For the compound `Nc1ncccc1-c1nc2ccc(-n3cccn3)nc2n1-c1ccc2c(c1)CC[C@@H]2N1Cc2cc(O)c(C=O)cc2C1=O` [Example 208, (S)-2-(5-(2-(2-aminopyridin-3-yl)-5-(1H-pyrazol-1-yl)-3H-imidazo[4,5-b]pyridin-3-yl)-2,3-dihydro-1H-inden-1-yl)-6-hydroxy-3-oxoisoindoline-5-carbaldehyde], the IC50 in experiment [1], in experiment [2], in experiment [3] and in experiment [4] was at least 2000 nM each time.
Regarding `N#Cc1cc(-n2cccn2)nc2c1nc(-c1cccnc1N)n2-c1ccc2c(c1)CC[C@@H]2NC(=O)c1ccc(O)c(C=O)c1` [Example 209, N-[(1S)-5-[2-(2-aminopyridin-3-yl)-7-cyano-5-(pyrazol-1-yl)imidazo[4,5-b]pyridin-3-yl]-2,3-dihydro-1H-inden-1-yl]-3-formyl-4-hydroxybenzamide], the IC50 lay within 10 to 100 nM in experiment [1], 10 to 100 nM in experiment [2], 10 to 100 nM in experiment [3] and 100 to 2000 nM in experiment [4].
As to `COCc1cc(-n2cccn2)nc2c1nc(-c1cccnc1N)n2-c1ccc2c(c1)CC[C@@H]2NC(=O)c1ccc(O)c(C=O)c1` [Example 210, N-[(1S)-5-[2-(2-aminopyridin-3-yl)-7-(methoxymethyl)-5-(pyrazol-1-yl)imidazo[4,5-b]pyridin-3-yl]-2,3-dihydro-1H-inden-1-yl]-3-formyl-4-hydroxybenzamide], the IC50 fell in the range of 10 to 100 nM in experiment [1], 10 to 100 nM in experiment [2], 100 to 2000 nM in experiment [3] and 100 to 2000 nM in experiment [4].
As to `Cc1cc(-c2ncco2)nc2c1nc(-c1cccnc1N)n2-c1ccc2c(c1)CC[C@@H]2NC(=O)c1ccc(O)c(C=O)c1` [Example 211, N-[(1S)-5-[2-(2-aminopyridin-3-yl)-7-methyl-5-(1,3-oxazol-2-yl)imidazo[4,5-b]pyridin-3-yl]-2,3-dihydro-1H-inden-1-yl]-3-formyl-4-hydroxybenzamide], the IC50 is 10 to 100 nM in experiment [1], under 10 nM in experiment [2], 10 to 100 nM in experiment [3] and 100 to 2000 nM in experiment [4].
Take `Nc1ncccc1-c1nc2c(Cl)cc(-n3cccn3)nc2n1-c1ccc2c(c1)CC[C@@H]2NC(=O)c1cc(C=O)c(O)c(F)c1F` [Example 212, N-[(1S)-5-[2-(2-aminopyridin-3-yl)-7-chloro-5-(pyrazol-1-yl)imidazo[4,5-b]pyridin-3-yl]-2,3-dihydro-1H-inden-1-yl]-2,3-difluoro-5-formyl-4-hydroxybenzamide]: the IC50 in experiment [1] was under 10 nM; in experiment [2], under 10 nM; in experiment [3], 10 to 100 nM; in experiment [4], 10 to 100 nM.
Take `Nc1ncccc1-c1nc2c(F)cc(-n3cccn3)nc2n1-c1ccc2c(c1)CC[C@@H]2NC(=O)c1ccc(O)c(C=O)c1` [Example 213, N-[(1S)-5-[2-(2-aminopyridin-3-yl)-7-fluoro-5-(pyrazol-1-yl)imidazo[4,5-b]pyridin-3-yl]-2,3-dihydro-1H-inden-1-yl]-3-formyl-4-hydroxybenzamide]: the IC50 in experiment [1] lay in the range of 10 to 100 nM; in experiment [2] it was 10 to 100 nM; in experiment [3], 100 to 2000 nM; in experiment [4], 100 to 2000 nM.
As to `COc1c(O)c(C=O)cc(C(=O)N[C@H]2CCc3cc(-n4c(-c5cccnc5N)nc5ccc(-n6cccn6)nc54)ccc32)c1F` [Example 214, N-[(1S)-5-[2-(2-aminopyridin-3-yl)-5-(pyrazol-1-yl)imidazo[4,5-b]pyridin-3-yl]-2,3-dihydro-1H-inden-1-yl]-2-fluoro-5-formyl-4-hydroxy-3-methoxybenzamide], the IC50 in experiment [1] was 10 to 100 nM; in experiment [2], under 10 nM; in experiment [3], 10 to 100 nM; in experiment [4] it was 100 to 2000 nM.
In the case of `COc1cc2nc(-c3cccnc3N)n(-c3ccc4c(c3)CC[C@@H]4NC(=O)c3ccc(O)c(C=O)c3)c2nc1-n1cccn1` [Example 215, N-[(1S)-5-[2-(2-aminopyridin-3-yl)-6-methoxy-5-(pyrazol-1-yl)imidazo[4,5-b]pyridin-3-yl]-2,3-dihydro-1H-inden-1-yl]-3-formyl-4-hydroxybenzamide], the IC50 lay within 100 to 2000 nM in experiment [1], 10 to 100 nM in experiment [2], 100 to 2000 nM in experiment [3] and 100 to 2000 nM in experiment [4].
On to `Nc1ncccc1-c1nc2ccc(-n3cccn3)nc2n1-c1ccc2c(c1)CC[C@@H]2NC(=O)Cc1ccc(C=O)c(O)c1F` [Example 216, (S)—N-(5-(2-(2-aminopyridin-3-yl)-5-(1H-pyrazol-1-yl)-3H-imidazo[4,5-b]pyridin-3-yl)-2,3-dihydro-1H-inden-1-yl)-2-(2-fluoro-4-formyl-3-hydroxyphenyl)acetamide; trifluoroacetic acid], for which the IC50 in experiment [1] lay in the range of 100 to 2000 nM; in experiment [2], 10 to 100 nM; in experiment [3], 100 to 2000 nM; in experiment [4] it was 100 to 2000 nM.
